How the values were obtained:
[1] = test system: PC-3; test: Cytotoxicity against human PC-3 cells assessed as cell growth inhibition measured after 24 to 72 hrs in presence of 2,3-dihydrophysalin F-3beta-O-sulfate by MTT assay; assay type: functional, cell-based
[2] = test system: SF-268; test: Cytotoxicity against human SF-268 cells assessed as cell growth inhibition measured after 24 to 72 hrs in presence of 2,3-dihydrophysalin F-3beta-O-sulfate by MTT assay; assay type: functional, cell-based
[3] = test system: MCF7; test: Cytotoxicity against human MCF7 cells assessed as cell growth inhibition measured after 24 to 72 hrs in presence of 2,3-dihydrophysalin F-3beta-O-sulfate by MTT assay; assay type: functional, cell-based
[4] = test system: WI-38; test: Cytotoxicity against human WI-38 cells assessed as cell growth inhibition measured after 24 to 72 hrs in presence of 2,3-dihydrophysalin F-3beta-O-sulfate by MTT assay; assay type: cell-based
[5] = test system: NCI-H460; test: Cytotoxicity against human NCI-H460 cells assessed as cell growth inhibition measured after 24 to 72 hrs in presence of 2,3-dihydrophysalin F-3beta-O-sulfate by MTT assay; assay type: functional, cell-based
[6] = test system: PC-3; test: Cytotoxicity against human PC-3 cells assessed as cell growth inhibition up to 10 uM measured after 24 to 72 hrs by MTT assay relative to control; assay type: functional; conditions: dose microM <=10; time 24-72 hrs
[7] = test system: NCI-H460; test: Cytotoxicity against human NCI-H460 cells assessed as cell growth inhibition up to 10 uM measured after 24 to 72 hrs by MTT assay relative to control; assay type: functional; conditions: dose microM <=10; time 24-72 hrs
[8] = test system: SF-268; test: Cytotoxicity against human SF-268 cells assessed as cell growth inhibition up to 10 uM measured after 24 to 72 hrs by MTT assay relative to control; assay type: functional; conditions: dose microM <=10; time 24-72 hrs
[9] = test system: WI-38; test: Cytotoxicity against human WI-38 cells assessed as cell growth inhibition up to 10 uM measured after 24 to 72 hrs by MTT assay relative to control; assay type: cell-based; conditions: time 24-72 hrs
[10] = test system: MCF7; test: Cytotoxicity against human MCF7 cells assessed as cell growth inhibition up to 10 uM measured after 24 to 72 hrs by MTT assay relative to control; assay type: functional; conditions: dose microM <=10; time 24-72 hrs
[11] = test system: PC-3; test: Cytotoxicity against human PC-3 cells assessed as cell growth inhibition measured after 24 to 72 hrs by MTT assay; assay type: functional, cell-based
[12] = test system: SF-268; test: Cytotoxicity against human SF-268 cells assessed as cell growth inhibition measured after 24 to 72 hrs by MTT assay; assay type: functional, cell-based
[13] = test system: WI-38; test: Cytotoxicity against human WI-38 cells assessed as cell growth inhibition measured after 24 to 72 hrs by MTT assay; assay type: cell-based
[14] = test system: MCF7; test: Cytotoxicity against human MCF7 cells assessed as cell growth inhibition measured after 24 to 72 hrs by MTT assay; assay type: functional, cell-based
[15] = test system: NCI-H460; test: Cytotoxicity against human NCI-H460 cells assessed as cell growth inhibition measured after 24 to 72 hrs by MTT assay; assay type: functional, cell-based
[16] = test system: PC-3; test: Cytotoxicity against human PC-3 cells assessed as cell growth inhibition measured after 24 hrs by MTT assay; assay type: functional, cell-based; conditions: PC-3, 24 h
[17] = test system: MCF7; test: Cytotoxicity against human MCF7 cells assessed as cell growth inhibition measured after 24 hrs by MTT assay; assay type: functional, cell-based; conditions: MCF7, 24 h
[18] = test system: NCI-H460; test: Cytotoxicity against human NCI-H460 cells assessed as cell growth inhibition measured after 24 to 72 hrs in presence of 5beta,6beta-epoxy-2,3-dihydrophysalin C-3beta-O-sulfate by MTT assay; assay type: functional, cell-based
[19] = test system: MCF7; test: Cytotoxicity against human MCF7 cells assessed as cell growth inhibition measured after 24 to 72 hrs in presence of 5beta,6beta-epoxy-2,3-dihydrophysalin C-3beta-O-sulfate by MTT assay; assay type: functional, cell-based
[20] = test system: WI-38; test: Cytotoxicity against human WI-38 cells assessed as cell growth inhibition measured after 24 to 72 hrs in presence of 5beta,6beta-epoxy-2,3-dihydrophysalin C-3beta-O-sulfate by MTT assay; assay type: cell-based
[21] = test system: PC-3; test: Cytotoxicity against human PC-3 cells assessed as cell growth inhibition measured after 24 to 72 hrs in presence of 5beta,6beta-epoxy-2,3-dihydrophysalin C-3beta-O-sulfate by MTT assay; assay type: functional, cell-based
[22] = test system: SF-268; test: Cytotoxicity against human SF-268 cells assessed as cell growth inhibition measured after 24 to 72 hrs in presence of 5beta,6beta-epoxy-2,3-dihydrophysalin C-3beta-O-sulfate by MTT assay; assay type: functional, cell-based

| SMILES | growth inhibition (GI) [6] | growth inhibition (GI) [7] | growth inhibition (GI) [8] | growth inhibition (GI) [9] | growth inhibition (GI) [10] | IC50 [11] | IC50 [12] | IC50 [13] | IC50 [14] | IC50 [15] | other results |
| --- | --- | --- | --- | --- | --- | --- | --- | --- | --- | --- | --- |
| C=C1C(=O)O[C@@H]2C[C@@]1(C)[C@@H]1C(=O)[C@]3(O)O[C@@]14[C@@](O)(CC[C@H]1[C@H]3C[C@H]3O[C@]35C[C@@H](OS(=O)(=O)O)CC(=O)[C@]15C)C(=O)O[C@@]24C |  |  |  |  |  |  |  |  |  |  | IC50 [1]: 2600 nM; IC50 [2]: 2400 nM; IC50 [3]: > 7200 nM; IC50 [4]: > 10000 nM; IC50 [5]: 2000 nM |
| CC(=O)O[C@]12O[C@@]34[C@@H](C1=O)[C@]1(C)C[C@@H](OC(=O)[C@H]1C)[C@]3(C)OC(=O)[C@]4(O)CC[C@H]1[C@H]2C[C@H]2O[C@]23CCCC(=O)[C@]13C | <50% | <50% | <50% | < 50% | <50% |  |  |  |  |  |  |
| C[C@@]12C[C@H]3OC(=O)[C@@H]1CO[C@]14O[C@]5([C@H]2C1=O)[C@@](O)(CC[C@H]1[C@H]4C[C@@H](O)[C@@]2(Cl)CC=CC(=O)[C@]12C)C(=O)O[C@@]35C |  |  |  |  |  | 1000 nM | 800 nM | 3900 nM | 2100 nM | 600 nM |  |
| C/C(=C1/C(=O)C[C@H]2[C@@H]3[C@@H]4O[C@@H]4[C@@]4(O)CC=CC(=O)[C@]4(C)[C@H]3CC(=O)[C@]12C)[C@H]1C[C@]2(C)O[C@]2(C)C(=O)O1 |  |  |  |  |  | 2300 nM | 7200 nM | > 10000 nM | > 10000 nM | 6500 nM | IC50 [16]: 68000 nM; IC50 [17]: > 100000 nM |
| CO[C@@H]1CC(=O)[C@]2(C)[C@H]3CC[C@@]4(O)C(=O)O[C@@]5(C)[C@H]6C[C@]7(C)[C@@H](CO[C@@]8(O[C@]45[C@H]7C8=O)[C@@H]3C[C@H]3O[C@]32C1)C(=O)O6 | <50% | <50% | <50% | < 50% | <50% |  |  |  |  |  |  |
| C=C1C(=O)O[C@@H]2C[C@@]1(C)[C@@H]1C(=O)[C@]3(O)O[C@@]14[C@@](O)(CC[C@H]1[C@H]3C[C@@H](O)[C@@]3(Cl)CC=CC(=O)[C@]13C)C(=O)O[C@@]24C |  |  |  |  |  | 800 nM | 500 nM | 3200 nM | 1200 nM | 600 nM |  |
| C[C@@]12C[C@H]3OC(=O)[C@@H]1CO[C@]14O[C@@]5([C@H]2C1=O)[C@@]3(C)OC(=O)[C@@]5(O)CC[C@H]1[C@H]4C[C@H]2O[C@]23CC=CC(=O)[C@]13C |  |  |  |  |  | 1000 nM | 500 nM | 3500 nM | 600 nM | 1000 nM |  |
| COc1cccc2c1C(=O)c1c(O)c3c(c(O)c1C2=O)C[C@@](O)(C(=O)CO)C[C@@H]3O[C@H]1C[C@H](N)[C@H](O)[C@H](C)O1 [DOXORUBICIN] |  |  |  |  |  |  | 500 nM |  |  |  |  |
| C[C@@]12C[C@H]3OC(=O)[C@@H]1CO[C@]14O[C@@]5([C@H]2C1=O)[C@@]3(C)OC(=O)[C@@]5(O)CC[C@H]1[C@H]4C[C@@H](O)[C@@]2(O)CC=CC(=O)[C@]12C | <50% | <50% | <50% | < 50% | <50% |  |  |  |  |  |  |
| C[C@@]12C[C@H]3OC(=O)[C@@H]1CO[C@]14O[C@]5([C@H]2C1=O)[C@@](O)(CC[C@H]1[C@H]4C[C@H]2O[C@]24C[C@@H](OS(=O)(=O)O)CC(=O)[C@]14C)C(=O)O[C@@]35C |  |  |  |  |  |  |  |  |  |  | IC50 [18]: 2000 nM; IC50 [19]: > 7200 nM; IC50 [20]: > 10000 nM; IC50 [21]: 2600 nM; IC50 [22]: 2400 nM |
| C[C@@H]1C(=O)O[C@@H]2C[C@@]1(C)[C@@H]1C(=O)[C@]3(O)O[C@@]14[C@@](O)(CC[C@H]1[C@H]3C[C@H]3O[C@]35CCCC(=O)[C@]15C)C(=O)O[C@@]24C | <50% | <50% | <50% | < 50% | <50% |  |  |  |  |  |  |
| C[C@]12C(=O)C=CCC1=CC[C@@H]1[C@@H]2CC[C@]2(O)C(=O)O[C@@]3(C)[C@H]4C[C@]5(C)[C@@H](CO[C@@]16O[C@@]32[C@H]5C6=O)C(=O)O4 [PHYSALIN B] |  |  |  |  |  | 1000 nM | 600 nM | 3300 nM | 1000 nM | 900 nM |  |
| CO[C@]12CC=CC(=O)[C@]1(C)[C@H]1CC[C@@]3(O)C(=O)O[C@@]4(C)[C@H]5C[C@]6(C)[C@@H](CO[C@@]7(O[C@]34[C@H]6C7=O)[C@@H]1C[C@H]2O)C(=O)O5 | <50% | <50% | <50% | < 50% | <50% |  |  |  |  |  |  |
| C=C1C(=O)O[C@@H]2C[C@@]1(C)[C@@H]1C(=O)[C@]3(O)O[C@@]14[C@@](O)(CC[C@H]1[C@H]3C[C@H]3O[C@]35CC=CC(=O)[C@]15C)C(=O)O[C@@]24C |  |  |  |  |  | 1000 nM | 900 nM | 3900 nM | 1700 nM | 1200 nM |  |

Source: ChEMBL document CHEMBL4813956, “Cytotoxic Physalins from Aeroponically Grown Physalis acutifolia” (J Nat Prod, 2021)
